According to patent US6562824B2, “Dihydropyridine soft drugs, and related compositions and methods” (Ortho-McNeil Pharmaceutical, Inc., priority 2000, dated 2003):

target: T1, Calcium Channel (3H-nitrendipine binding site, heart membranes) (Oryctolagus cuniculus, UniProt P15381); experiment: Assay for Inhibition of Nitrendipine Binding (3H-nitrendipine, rabbit heart membranes); conditions: Table 1, Formula Ii compounds, 3H-nitrendipine 0.05-0.50 nM, 90 minutes
T1 construct: from tissue; host or cells: rabbit heart membrane preparation
Description: Female, New Zealand white rabbits (1-2 kg) are sacrificed by cervical dislocation, and the heart is immediately removed, cleaned and chopped into small pieces. The tissue is homogenized in 5× times volume of 0.05M Hepes buffer, pH 7.4. The homogenate is centrifuged at 4000g for 10 minutes, and the supernatant is re-centrifuged at 42,000× g for 90 minutes. The resulting membrane pellet is resuspended (0.7 ml/g weight) in 0.05M Hepes, pH 7.4 and stored at […] until used. Each tube of the binding assay contains ^3H-nitrendipine (0.05-0.50 nM), buffer, membranes (0.10 ml), and test compound in a total volume of 1.0 ml. After 90 minutes at 4≦ C., the bound nitrendipine is separated from the unbound by filtration on Whatman GF/C filters. After rinsing, the filters are dried and counted in a liquid scintillation counter.
Non-specific binding of ^3H-nitrendipine (that amount bound in the presence of excess unlabelled nitrendipine) is subtracted from the total bound to obtain specifically bound radiolabeled nitrendipine. The amount of specifically bound nitrendipine in the presence of a test compound is compared to that amount bound in the absence of a compound. A percent displacement (or inhibition) can then be calculated.

T1 sequence (P15381 whole entry): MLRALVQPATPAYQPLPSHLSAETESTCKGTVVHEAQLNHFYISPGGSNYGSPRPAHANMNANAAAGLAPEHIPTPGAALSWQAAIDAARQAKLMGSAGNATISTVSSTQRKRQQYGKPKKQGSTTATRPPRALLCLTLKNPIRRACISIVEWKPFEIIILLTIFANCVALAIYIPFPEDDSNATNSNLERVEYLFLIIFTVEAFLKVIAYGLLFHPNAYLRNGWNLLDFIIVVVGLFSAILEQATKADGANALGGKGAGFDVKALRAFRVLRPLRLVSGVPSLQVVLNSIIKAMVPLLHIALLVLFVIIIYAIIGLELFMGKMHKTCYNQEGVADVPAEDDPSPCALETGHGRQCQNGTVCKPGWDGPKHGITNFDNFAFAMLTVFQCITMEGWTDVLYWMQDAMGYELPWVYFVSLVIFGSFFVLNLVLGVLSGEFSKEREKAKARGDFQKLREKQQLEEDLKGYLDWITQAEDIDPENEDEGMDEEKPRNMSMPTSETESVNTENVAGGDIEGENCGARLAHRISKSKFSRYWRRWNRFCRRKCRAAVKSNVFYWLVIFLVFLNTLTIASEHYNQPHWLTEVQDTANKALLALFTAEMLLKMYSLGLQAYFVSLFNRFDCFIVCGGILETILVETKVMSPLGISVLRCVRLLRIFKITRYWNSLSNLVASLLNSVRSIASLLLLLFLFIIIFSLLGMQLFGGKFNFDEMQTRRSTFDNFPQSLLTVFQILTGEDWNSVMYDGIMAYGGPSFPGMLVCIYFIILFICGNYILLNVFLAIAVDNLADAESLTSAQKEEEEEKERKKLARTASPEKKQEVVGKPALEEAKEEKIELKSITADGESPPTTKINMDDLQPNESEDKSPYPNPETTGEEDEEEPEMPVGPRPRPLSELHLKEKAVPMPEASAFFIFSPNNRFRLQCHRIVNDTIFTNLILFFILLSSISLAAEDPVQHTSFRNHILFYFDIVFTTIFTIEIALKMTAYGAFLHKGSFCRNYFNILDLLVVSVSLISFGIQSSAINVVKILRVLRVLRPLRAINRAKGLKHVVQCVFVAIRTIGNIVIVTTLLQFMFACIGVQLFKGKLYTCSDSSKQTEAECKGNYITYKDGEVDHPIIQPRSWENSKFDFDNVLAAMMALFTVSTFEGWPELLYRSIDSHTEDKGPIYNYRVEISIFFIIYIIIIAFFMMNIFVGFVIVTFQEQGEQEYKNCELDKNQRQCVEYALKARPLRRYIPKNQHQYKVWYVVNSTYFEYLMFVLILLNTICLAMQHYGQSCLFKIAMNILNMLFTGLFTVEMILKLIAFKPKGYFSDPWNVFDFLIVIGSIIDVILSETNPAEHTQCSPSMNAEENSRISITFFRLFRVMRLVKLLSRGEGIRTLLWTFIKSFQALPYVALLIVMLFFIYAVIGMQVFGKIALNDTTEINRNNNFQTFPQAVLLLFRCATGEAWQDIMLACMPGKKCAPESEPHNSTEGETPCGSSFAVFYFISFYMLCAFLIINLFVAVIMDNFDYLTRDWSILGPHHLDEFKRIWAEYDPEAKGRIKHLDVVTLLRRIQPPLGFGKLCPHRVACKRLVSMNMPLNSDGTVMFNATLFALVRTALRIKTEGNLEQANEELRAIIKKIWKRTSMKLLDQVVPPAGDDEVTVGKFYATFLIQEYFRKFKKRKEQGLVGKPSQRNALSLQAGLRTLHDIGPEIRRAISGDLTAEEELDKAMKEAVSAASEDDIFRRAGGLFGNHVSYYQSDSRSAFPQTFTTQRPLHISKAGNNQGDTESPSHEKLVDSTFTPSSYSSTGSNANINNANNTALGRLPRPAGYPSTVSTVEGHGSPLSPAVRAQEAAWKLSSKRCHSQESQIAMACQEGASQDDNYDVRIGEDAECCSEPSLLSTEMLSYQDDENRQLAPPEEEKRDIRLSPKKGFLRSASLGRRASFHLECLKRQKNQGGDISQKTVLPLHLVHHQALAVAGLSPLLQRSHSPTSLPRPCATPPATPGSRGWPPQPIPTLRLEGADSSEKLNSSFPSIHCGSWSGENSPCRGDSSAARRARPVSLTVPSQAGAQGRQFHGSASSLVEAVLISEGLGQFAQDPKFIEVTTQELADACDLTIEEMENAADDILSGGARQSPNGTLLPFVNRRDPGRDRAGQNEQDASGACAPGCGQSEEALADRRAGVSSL

Row | Compound | IC50
1 | CC1=C(C(=O)OCCOC(=O)C(N)CCCCN)C(c2c(F)cccc2Cl)C2=C(CS(=O)(=O)CCS2(=O)=O)N1 (single isomer, unassigned) [Compound 64] | 51000 nM
2 | CC1=C(C(=O)OCCOC(=O)c2ccc(C(F)(F)F)cc2)C(c2c(F)cccc2Cl)C2=C(CS(=O)(=O)CCS2(=O)=O)N1 (centres unmarked) [Compound 11, 5H-[1,4]dithiepino[6,5-b]pyridine-8-carboxylic acid, 9-(2-chloro-6-fluorophenyl)-2,3,6,9-tetrahydro-7-methyl-, 2-[[4-(trifluoromethyl)benzoyl]oxy]ethyl ester, 1,1,4,4-tetraoxide] | 48 nM
3 | CC1=C(C(=O)OCCOC(=O)CCc2ccccc2)C(c2c(F)cccc2Cl)C2=C(CS(=O)(=O)CCS2(=O)=O)N1 (centres unmarked) [Compound 12] | 48 nM
4 | CC1=C(C(=O)OCCOC(=O)c2cccc(C#N)c2)C(c2c(F)cccc2Cl)C2=C(CS(=O)(=O)CCS2(=O)=O)N1 (centres unmarked) [Compound 18] | 61 nM
5 | COc1ccc(C(=O)OCCOC(=O)C2=C(C)NC3=C(C2c2c(F)cccc2Cl)S(=O)(=O)CCS(=O)(=O)C3)cc1 (centres unmarked) [Compound 20] | 69 nM
6 | CC1=C(C(=O)OCc2oc(=O)oc2C)C(c2cccc(Cl)c2Cl)C2=C(CS(=O)(=O)CCS2(=O)=O)N1 (centres unmarked) [Compound 21] | 72 nM
7 | CC1=C(C(=O)OCCOC(=O)C(CCCCNC(=O)OCc2ccccc2)NC(=O)OC(C)(C)C)C(c2c(F)cccc2Cl)C2=C(CS(=O)(=O)CCS2(=O)=O)N1 (centres unmarked) [Compound 29] | 175 nM
8 | CC1=C(C(=O)OCCOC(=O)C(Cc2ccccc2)NC(=O)c2ccccc2)C(c2c(F)cccc2Cl)C2=C(CS(=O)(=O)CCS2(=O)=O)N1 (centres unmarked) [Compound 38] | 358 nM
9 | CC1=C(C(=O)OCCOC(=O)C(NC(=O)OC(C)(C)C)C(C)C)C(c2c(F)cccc2Cl)C2=C(CS(=O)(=O)CCS2(=O)=O)N1 (centres unmarked) [Compound 40] | 405 nM
10 | CC1=C(C(=O)OC2CCOC2=O)C(c2cccc(Cl)c2Cl)C2=C(CS(=O)(=O)CCS2(=O)=O)N1 (centres unmarked) [Compound 43] | 456 nM
11 | CC1=C(C(=O)OCCOC(=O)c2cccnc2)C(c2c(F)cccc2Cl)C2=C(CS(=O)(=O)CCS2(=O)=O)N1 (centres unmarked) [Compound 44] | 505 nM
12 | CC1=C(C(=O)OCCOC(=O)C(Cc2ccccc2)N(C)C)C(c2c(F)cccc2Cl)C2=C(CS(=O)(=O)CCS2(=O)=O)N1 (centres unmarked) [Compound 45] | 541 nM
13 | CC1=C(C(=O)OCCOC(=O)C(C)C)C(c2c(F)cccc2Cl)C2=C(CS(=O)(=O)CCS2(=O)=O)N1 (centres unmarked) [Compound 56] | 2320 nM
14 | CC1=C(C(=O)OCCOC(=O)C2CCOC2=O)C(c2c(F)cccc2Cl)C2=C(CS(=O)(=O)CCS2(=O)=O)N1 (centres unmarked) [Compound 62] | 19400 nM
15 | CC1=C(C(=O)OCCOC(=O)CCN2CCCCC2)C(c2c(F)cccc2Cl)C2=C(CS(=O)(=O)CCS2(=O)=O)N1 (centres unmarked) [Compound 63] | 49000 nM

same assay, conditions: Table 2, Formula Ij compounds, 3H-nitrendipine 0.05-0.50 nM, 90 minutes

Row | Compound | IC50
16 | CC1=C(C(=O)OCCOC(=O)c2cccc(C#N)c2)C(c2c(F)cccc2Cl)C2=C(CS(=O)(=O)CCCS2(=O)=O)N1 (centres unmarked) [Compound 68, 2H,6H-[1,5]dithiocino[3,2-b]pyridine-9-carboxylic acid, 10-(2-chloro-6-fluorophenyl)-3,4,7,10-tetrahydro-8-methyl-, 2-[(3-cyanobenzoyl)oxy]ethyl ester, 1,1,5,5-tetraoxide] | 49 nM
17 | CC1=C(C(=O)OCCOC(=O)C2CCCCC2)C(c2c(F)cccc2Cl)C2=C(CS(=O)(=O)CCCS2(=O)=O)N1 (centres unmarked) [Compound 70, 2H,6H-[1,5]dithiocino[3,2-b]pyridine-9-carboxylic acid, 10-(2-chloro-6-fluorophenyl)-3,4,7,10-tetrahydro-8-methyl-, 2-[(cyclohexylcarbonyl)oxy]ethyl ester, 1,1,5,5-tetraoxide] | 65 nM
